Reference: a compilation of properties of binary mixtures (doi:10.1016/j.fluid.2021.113175)

Assay: xn = mol fraction of the nth substance listed
Settings: 100 kPa

CC[N+]1(C)CCCC1.COP(=O)([O-])OC + CCO
viscosity [mPa·s]
Settings | 293.15 K | 298.15 K | 303.15 K | 308.15 K | 313.15 K | 318.15 K | 323.15 K | 328.15 K | 333.15 K | 338.15 K
x1 = 0.0534 | – | 2.03 | 1.84 | 1.7 | 1.59 | 1.47 | – | 1.27 | 1.18 | –
x1 = 0.1054 | 3.4 | 3.06 | 2.75 | 2.51 | 2.31 | – | 1.96 | – | 1.71 | 1.6
x1 = 0.1535 | – | – | – | 3.68 | 3.33 | 3.06 | – | 2.61 | 2.42 | 2.23
x1 = 0.2015 | 6.75 | 6.07 | 5.35 | 4.78 | 4.33 | 3.97 | – | – | – | 2.8
x1 = 0.306 | 13.5 | – | 10.16 | 8.72 | 7.62 | 6.71 | 6.04 | 5.41 | 4.85 | 4.4
x1 = 0.4029 | 23.1 | 19.4 | 16.43 | 13.96 | 11.88 | 10.18 | 8.85 | 7.81 | 6.85 | 6
x1 = 0.5052 | 37.5 | 30.3 | 24.7 | – | 17.4 | 14.83 | 12.49 | 10.82 | 9.31 | 8
x1 = 0.6022 | 57 | 45.9 | 36.3 | 29.9 | 24.6 | 20.4 | 17.4 | – | 12.65 | 10.78
x1 = 0.6938 | 83.2 | 64.5 | 50.1 | – | 32.4 | 27 | – | 19 | 16.05 | 13.13
x1 = 0.8049 | 120.2 | 91.1 | 70 | 54.9 | 44 | 35.6 | – | – | 20.3 | 16.7
x1 = 0.9073 | 171 | 127.5 | 94.7 | 73.8 | 57.5 | 46.3 | 38 | 31 | 24.5 | –
x1 = 1 | 228 | 169 | – | – | 72.8 | 56.4 | 45.1 | 36.6 | 29.8 | –

COP(=O)([O-])OC.C[N+]1(CCO)CCCC1 + CCO
viscosity [mPa·s]
Settings | 293.15 K | 298.15 K | 303.15 K | 308.15 K | 313.15 K | 318.15 K | 323.15 K | 328.15 K | 333.15 K | 338.15 K
x1 = 0.0561 | 2.69 | 2.27 | – | – | 1.54 | 1.33 | 1.17 | 1.04 | 0.92 | 0.82
x1 = 0.1077 | – | 4.39 | 3.88 | – | 3.23 | 2.94 | 2.69 | 2.47 | 2.28 | 2.1
x1 = 0.1523 | 7.31 | 6.71 | 6.24 | – | 5.31 | 4.98 | 4.66 | 4.37 | 4.09 | 3.85
x1 = 0.2079 | – | 10.91 | – | 8.65 | 7.87 | – | 6.44 | – | 5.33 | 4.93
x1 = 0.2537 | 19.2 | 16.9 | 14.81 | 13.08 | 11.56 | – | 9.55 | 8.62 | 8 | 7.27
x1 = 0.3084 | – | 27.7 | – | – | 18.5 | 16.22 | 14.35 | – | 11.68 | 10.55
x1 = 0.4033 | – | 48.5 | 40.2 | 34.3 | 30 | – | 22.9 | 20.3 | – | –
x1 = 0.5077 | – | 98.2 | – | 64.3 | 53.4 | – | – | 33.1 | 28 | –
x1 = 0.6042 | 220 | 174 | 133.8 | 108.1 | 87.6 | 72.1 | – | – | 42 | –
x1 = 0.7053 | – | – | 219 | 167 | 128.5 | 102.3 | 82.6 | 66.1 | – | 43.3
x1 = 0.8055 | 670 | – | 346 | 257 | 196 | 152.8 | 120.7 | 95 | 76.3 | –
x1 = 0.9053 | 1030 | 722 | 512 | 374 | – | 212 | 163 | 128.6 | 102.4 | 80.5
x1 = 1 | 1452 | 981 | 687 | 496 | 366 | – | 210 | 162 | 127.5 | 96.7

CCO + CC[N+]1(C)CCCC1.COP(=O)([O-])OC
x2 = 0
Settings | viscosity [mPa·s]
293.15 K | 1.19
298.15 K | 1.08
303.15 K | 0.98
313.15 K | 0.82
323.15 K | 0.69
338.15 K | 0.54

CCO + COP(=O)([O-])OC.C[N+]1(CCO)CCCC1
x2 = 0
Settings | viscosity [mPa·s]
293.15 K | 1.19
303.15 K | 0.98
308.15 K | 0.9
313.15 K | 0.82
318.15 K | 0.75
323.15 K | 0.69
328.15 K | 0.63
333.15 K | 0.58
338.15 K | 0.54
